In PubChem BioAssay AID720673 (NMMLSC, 2013) one finds EC50 data, which are given here for 82 molecules.

The test addresses Botulinum neurotoxin type A light chain (Clostridium botulinum A ATCC 3502). The experiment in a line: inhibition of botulinum toxin A LC cleavage – biochemical, powder set 03, dose response (AID 720673). Particulars: BoNT/A LC protease, multiplex microsphere substrate cleavage assay.

The source made the active and inactive calls. The rule behind the calls is not given here.

On to `COc1ccc(-c2cn3nc(-c4ccc(C)cc4)c(-c4ccc(C)cc4)nc3n2)c(OC)c1`, for which the EC50 (commonly the concentration giving half of the maximal effect) is 9.5 µM.

In the case of `O=C(Nc1ccc2nc(-c3cccs3)c(-c3cccs3)nc2c1)OCc1ccccc1`, the EC50 was 10.6 µM.

In the case of `Cc1ccc(-c2nc3nc(-c4ccc(S(C)(=O)=O)cc4)cn3nc2-c2ccc(C)cc2)cc1`, the EC50 is 7.6 µM. With `Fc1ccc(-c2cn3nc(-c4ccccc4)c(-c4ccccc4)nc3n2)cc1`, the EC50 was > 20 µM (inactive). In the case of `CC(C)OC(=O)Nc1ccc2nc(-c3cccs3)c(-c3cccs3)nc2c1`, the EC50 is > 20 µM (inactive). With `COc1ccc(-c2nc3nc(-c4ccc(S(C)(=O)=O)cc4)cn3nc2-c2ccc(OC)cc2)cc1` the figure was > 20 µM (inactive). Turning to `COc1ccc(-c2nc3nc(-c4ccccc4OC)cn3nc2-c2ccc(OC)cc2)cc1`, the EC50 was 8.9 µM. For `O=S(=O)(Nc1ccc2nc(-c3ccccc3)c(-c3ccccc3)nc2c1)C1CC1`, the EC50 is > 20 µM (inactive). In the case of `CC(C)OC(=O)Nc1ccc2nc(-c3ccccc3)c(-c3ccccc3)nc2c1`, the EC50 was > 20 µM (inactive). As to `CC(C)NC(=O)Nc1ccc2nc(-c3cccs3)c(-c3cccs3)nc2c1`, the EC50 is > 20 µM (inactive). Regarding `Cc1ccc(-c2nc3nc(-c4cccc(F)c4)cn3nc2-c2ccc(C)cc2)cc1`, the EC50 was 5.2 µM. Turning to `Cc1ccc(-c2cn3nc(-c4ccc(F)cc4)c(-c4ccc(F)cc4)nc3n2)cc1`, the concentration giving a half-maximal response (EC50) was 7.7 µM. Take `O=C(Nc1ccc2nc(-c3ccccc3)c(-c3ccccc3)nc2c1)NC1CCCC1`: the EC50 is > 20 µM (inactive). For the molecule `CCC(=O)Nc1ccc2nc(-c3cccs3)c(-c3cccs3)nc2c1`, the EC50 is > 20 µM (inactive). In the case of `COc1ccc(-c2cn3nc(-c4ccc(F)cc4)c(-c4ccc(F)cc4)nc3n2)c(OC)c1`, the EC50 is 5.7 µM. Turning to `CCOC(=O)Nc1ccc2nc(-c3ccccc3)c(-c3ccccc3)nc2c1`, the EC50 is > 20 µM (inactive). With `CCOC(=O)Nc1ccc2nc(-c3cccs3)c(-c3cccs3)nc2c1` the figure was > 20 µM (inactive); with `CCCOC(=O)Nc1ccc2nc(-c3cccs3)c(-c3cccs3)nc2c1`, > 20 µM (inactive). As to `COc1ccc(-c2nc3nc(-c4ccc(OC)cc4OC)cn3nc2-c2ccc(OC)cc2)cc1`, the EC50 is > 20 µM (inactive). For `Cc1ccc(-c2nc3nc(-c4ccc(F)cc4)cn3nc2-c2ccc(C)cc2)cc1`, the EC50 was 7.6 µM.

As to `COc1ccccc1-c1cn2nc(-c3ccc(F)cc3)c(-c3ccc(F)cc3)nc2n1`, the EC50 was 6.2 µM. Take `CC(C)(C)C(=O)Nc1ccc2nc(-c3ccccc3)c(-c3ccccc3)nc2c1`: the EC50 is > 20 µM (inactive).

Regarding `Clc1ccc(-c2cn3nc(-c4ccccc4)c(-c4ccccc4)nc3n2)c(Cl)c1`, the EC50 is > 20 µM (inactive). For `CCCOC(=O)Nc1ccc2nc(-c3ccccc3)c(-c3ccccc3)nc2c1`, the EC50 is > 20 µM (inactive). As for `CCC(=O)Nc1ccc2nc(-c3ccccc3)c(-c3ccccc3)nc2c1`, the EC50 is > 20 µM (inactive).

Take `CCCCOC(=O)Nc1ccc2nc(-c3ccccc3)c(-c3ccccc3)nc2c1`: the EC50 was > 20 µM (inactive). As to `COc1ccc(-c2cn3nc(-c4ccc(F)cc4)c(-c4ccc(F)cc4)nc3n2)cc1`, the EC50 is 7.1 µM. With `CCNC(=O)Nc1ccc2nc(-c3ccccc3)c(-c3ccccc3)nc2c1`, the EC50 is > 20 µM (inactive). Regarding `CC(Oc1ccccc1)C(=O)Nc1ccc2nc(-c3ccccc3)c(-c3ccccc3)nc2c1` (configuration not stated), the EC50 is > 20 µM (inactive). In the case of `CC(C)CS(=O)(=O)Nc1ccc2nc(-c3cccs3)c(-c3cccs3)nc2c1`, the EC50 was > 20 µM (inactive). In the case of `N#Cc1ccc(-c2cn3nc(-c4ccc(F)cc4)c(-c4ccc(F)cc4)nc3n2)cc1`, the EC50 is > 20 µM (inactive).

For `COc1ccc(-c2nc3nc(-c4ccc(OC(F)(F)F)cc4)cn3nc2-c2ccc(OC)cc2)cc1`, the EC50 was 4.2 µM. Turning to `CCNC(=O)Nc1ccc2nc(-c3cccs3)c(-c3cccs3)nc2c1`, the concentration giving a half-maximal response (EC50) is 14.3 µM. As for `Fc1cccc(-c2cn3nc(-c4ccccc4)c(-c4ccccc4)nc3n2)c1`, the EC50 is > 20 µM (inactive). On to `COc1cccc(-c2cn3nc(-c4ccccc4)c(-c4ccccc4)nc3n2)c1`, for which the EC50 was 16.2 µM. Turning to `Cc1ccc(-c2cn3nc(-c4ccc(C)cc4)c(-c4ccc(C)cc4)nc3n2)cc1`, the EC50 is 4.7 µM. As to `CCS(=O)(=O)Nc1ccc2nc(-c3ccccc3)c(-c3ccccc3)nc2c1`, the EC50 was > 20 µM (inactive).

`O=C(Nc1ccc2nc(-c3cccs3)c(-c3cccs3)nc2c1)C1CC1`: the EC50 is > 20 µM (inactive). As to `O=C(Nc1ccc2nc(-c3ccccc3)c(-c3ccccc3)nc2c1)C1CCC1`, the EC50 was > 20 µM (inactive).

`O=S(=O)(Nc1ccc2nc(-c3cccs3)c(-c3cccs3)nc2c1)C1CC1`: the EC50 is > 20 µM (inactive).

Consider `Fc1ccc(-c2nc3nc(-c4ccc(OC(F)(F)F)cc4)cn3nc2-c2ccc(F)cc2)cc1`, for which the 50% effective concentration (EC50) was 15.3 µM. Take `Cc1ccc(-c2nc3nc(-c4ccc(C#N)cc4)cn3nc2-c2ccc(C)cc2)cc1`: the EC50 was 4.7 µM. Take `N#Cc1ccc(-c2cn3nc(-c4ccccc4)c(-c4ccccc4)nc3n2)cc1`: the EC50 is > 20 µM (inactive).

With `COc1ccc(-c2cn3nc(-c4ccc(OC)cc4)c(-c4ccc(OC)cc4)nc3n2)cc1`, the EC50 is 5.7 µM. Regarding `COC(=O)Nc1ccc2nc(-c3cccs3)c(-c3cccs3)nc2c1`, the EC50 was > 20 µM (inactive). Take `CCCS(=O)(=O)Nc1ccc2nc(-c3ccccc3)c(-c3ccccc3)nc2c1`: the EC50 is > 20 µM (inactive). The same measure for `CCCS(=O)(=O)Nc1ccc2nc(-c3cccs3)c(-c3cccs3)nc2c1`: > 20 µM (inactive); for `CCCNC(=O)Nc1ccc2nc(-c3ccccc3)c(-c3ccccc3)nc2c1`: > 20 µM (inactive); for `COc1ccc(-c2nc3nc(-c4cccc(OC)c4)cn3nc2-c2ccc(OC)cc2)cc1`: 14.7 µM. `COc1ccccc1-c1cn2nc(-c3ccccc3)c(-c3ccccc3)nc2n1`: the EC50 was 10.9 µM. Consider `COc1ccc(-c2nc3nc(-c4ccc(C)cc4)cn3nc2-c2ccc(OC)cc2)cc1`, for which the EC50 was > 20 µM (inactive).

As for `CS(=O)(=O)c1ccc(-c2cn3nc(-c4ccccc4)c(-c4ccccc4)nc3n2)cc1`, the EC50 is 11.6 µM.

Consider `COc1ccc(-c2cn3nc(-c4ccc(C)cc4)c(-c4ccc(C)cc4)nc3n2)cc1`, for which the EC50 is 5 µM. With `CCNC(=S)Nc1ccc2nc(-c3ccccc3)c(-c3ccccc3)nc2c1` the figure was > 20 µM (inactive); with `Fc1ccc(-c2cn3nc(-c4ccc(F)cc4)c(-c4ccc(F)cc4)nc3n2)cc1`, 6.7 µM; with `COc1ccc(-c2nc3nc(-c4ccc(C#N)cc4)cn3nc2-c2ccc(OC)cc2)cc1`, 2.4 µM. On to `COc1ccccc1-c1cn2nc(-c3ccc(C)cc3)c(-c3ccc(C)cc3)nc2n1`, for which the EC50 was 12.4 µM. As to `COc1ccc(-c2cn3nc(-c4ccccc4)c(-c4ccccc4)nc3n2)c(OC)c1`, the EC50 was 13.2 µM. With `COc1ccc(-c2nc3nc(-c4ccc(F)cc4)cn3nc2-c2ccc(OC)cc2)cc1` the figure was 4 µM. With `COC(=O)Nc1ccc2nc(-c3ccccc3)c(-c3ccccc3)nc2c1`, the EC50 was > 20 µM (inactive). With `O=C(Nc1ccc2nc(-c3ccccc3)c(-c3ccccc3)nc2c1)OCc1ccccc1`, the EC50 was > 20 µM (inactive). On to `CC(C)NC(=O)Nc1ccc2nc(-c3ccccc3)c(-c3ccccc3)nc2c1`, for which the EC50 was > 20 µM (inactive).

For the molecule `FC(F)(F)Oc1ccc(-c2cn3nc(-c4ccccc4)c(-c4ccccc4)nc3n2)cc1`, the EC50 is > 20 µM (inactive). On to `COc1cccc(-c2cn3nc(-c4ccc(C)cc4)c(-c4ccc(C)cc4)nc3n2)c1`, for which the EC50 is 6.6 µM. Consider `COc1ccc(-c2nc3nc(-c4cccc(F)c4)cn3nc2-c2ccc(OC)cc2)cc1`, for which the EC50 is 7 µM. With `CC(C)(C)NC(=O)Nc1ccc2nc(-c3ccccc3)c(-c3ccccc3)nc2c1`, the EC50 is > 20 µM (inactive).

With `CCCCOC(=O)Nc1ccc2nc(-c3cccs3)c(-c3cccs3)nc2c1`, the EC50 was > 20 µM (inactive). Turning to `Cc1ccc(-c2nc3nc(-c4ccc(OC(F)(F)F)cc4)cn3nc2-c2ccc(C)cc2)cc1`, the EC50 was 4 µM. The same measure for `O=C(Nc1ccc2nc(-c3cccs3)c(-c3cccs3)nc2c1)NC1CCCC1`: > 20 µM (inactive).

With `O=C(Nc1ccc2nc(-c3ccccc3)c(-c3ccccc3)nc2c1)C1CCCCC1`, the EC50 was > 20 µM (inactive). As to `Cc1ccc(-c2nc3nc(-c4ccccc4)cn3nc2-c2ccc(C)cc2)cc1`, the EC50 is 7.4 µM. With `O=C(Nc1ccc2nc(-c3ccccc3)c(-c3ccccc3)nc2c1)C1CCCC1` the figure was > 20 µM (inactive); with `O=C(Nc1ccc2nc(-c3ccccc3)c(-c3ccccc3)nc2c1)C1CC1`, > 20 µM (inactive); with `CC(C)CS(=O)(=O)Nc1ccc2nc(-c3ccccc3)c(-c3ccccc3)nc2c1`, > 20 µM (inactive).

For `COc1ccc(-c2nc3nc(-c4ccccc4)cn3nc2-c2ccc(OC)cc2)cc1`, the 50% effective concentration (EC50) was 9.2 µM. For `O=C(Nc1ccc2nc(-c3cccs3)c(-c3cccs3)nc2c1)C1CCC1`, the EC50 was > 20 µM (inactive). With `CC(=O)Nc1ccc2nc(-c3ccccc3)c(-c3ccccc3)nc2c1` the figure was > 20 µM (inactive); with `CS(=O)(=O)c1ccc(-c2cn3nc(-c4ccc(F)cc4)c(-c4ccc(F)cc4)nc3n2)cc1`, > 20 µM (inactive); with `O=C(Nc1ccc2nc(-c3cccs3)c(-c3cccs3)nc2c1)C1CCCC1`, > 20 µM (inactive).

Consider `Fc1ccc(-c2nc3nc(-c4cccc(F)c4)cn3nc2-c2ccc(F)cc2)cc1`, for which the EC50 is 8.6 µM. Turning to `Fc1ccc(-c2nc3nc(-c4ccccc4)cn3nc2-c2ccc(F)cc2)cc1`, the EC50 is 11.1 µM.

With `COc1cccc(-c2cn3nc(-c4ccc(F)cc4)c(-c4ccc(F)cc4)nc3n2)c1`, the EC50 was 11.1 µM.
